Data taken from patent EP2207528B1, “PHARMACEUTICAL COMPOSITION” (STI Pharmaceuticals Ltd., priority 2007, dated 2009).
Values after ≈ are worked out from the molar mass of the structure shown. Read-outs that look alike come from different tables or passages of the source.

Columns and labels:
[1] = after inhalation of a THC aerosol, Pari Master; cited from earlier work
[2] = Open study, THC-CBD inhaled (pMDI) vs intravenous, plasma pharmacokinetics by GC/MS; type: in vivo, healthy volunteers; details: for time measurable in plasma after administration: 360 mcg i.h. and i.v. doses; for half-life: human, plasma, 720 ug, read-out: elimination half-lives; for half-life / mean i.h. bioavailability (calculated vs. i.v.) / time of plasma peak post-drug: 720 mcg
Description: In an open study on 12 healthy volunteers a combination of THC and cannabidiol (CBD) was compared after inhalation (i.h.) and intravenously (i.v.) (see Rudolf Brenneisen, Pascale Meyer, Manuela Langos, Christian Steup and Andrew Davies, IACM Congress 2007, 05.10.2007 Cologne).
The liquid aerosol was produced by an in-vitro validated pMDI device, releasing about 45% of the cannabinoid dose, enabling a dosage of about 90 mcg THC and 90 mcg CBD per actuation. The actuator was used from Bespak with an orifice diameter of 0.22mm.
Three subjects (pilot study) received 360 and 9 subjects 720 mcg THC-CBD, corresponding to 4 and 8 actuations, respectively. The addition of a Lidocain HCL to the pulmonal preparation was expected to prevent mucosa irritation and coughing. The pharmacokinetic evaluation was based on plasma profiles aquired by GC/MS. Adverse effects were monitored by visual analog scales (VAS) and measuring vital functions.

[3] = oral; cited from earlier work
[4] = Solubility of local anaesthetic in ethanol and HFA 227

SMILES	bioavailability [1] [%]	time measurable in plasma after administration [2] [min]	main metabolite ([2]; after i.h.)	THC metabolism ([2]; after i.h., compared with oral (p.o.) administration)	half-life ([2]; inhaled, i.h.) [min]	half-life ([2]; iv, i.v.) [min]	mean i.h. bioavailability (calculated vs. i.v.) ([2]; i.h.) [%]	time of plasma peak post-drug ([2]; i.h.) [min]	time of plasma peak post-drug ([2]; i.v.) [min]	bioavailability [3]	solubility ([4]; ethanol, organic solvent or mixture) [mg/mL]	solubility ([4]; hfa 227, organic solvent or mixture) [mg/mL]	Limit of solubility in Ethanol ([4]; in Ethanol) [mg/mL]	Limit of solubility in HFA 227 ([4]; in HFA 227) [mg/mL]
CCCCCc1cc(O)c2c(c1)OC(C)(C)[C@@H]1CCC(C)=C[C@@H]21 [THC, delta-9-Tetrahydrocannabinol]	29	≤ 20	Conjugated 11-carboxy-THC	less pronounced than after oral	7	22	55 ± 37	5	5	5-20%	–	–	–	–
CCCCNc1ccc(C(=O)OCCN(C)C)cc1 [Tetracain, Tetracaine Base]	–	–	–	–	–	–	–	–	–	–	450 (≈ 1700 mM)	40 (≈ 151 mM)	450	40
C=C(C)[C@@H]1CCC(C)=C[C@H]1c1c(O)cc(CCCCC)cc1O [CBD, Cannabidiol]	–	≤ 20	–	–	11	24	59 ± 47	5	5	–	–	–	–	–
